Measurements taken from patent publication US10085974B2, “Dosage and formulation” (Almirall, S.A., priority 2008, dated 2018).

Key:
[1] = system: Patients with moderate to severe stable COPD; test: Spirometric measurements (FEV1) in a 4-week randomized once-daily trial in COPD patients; type: in vivo, human; conditions: for Mean change from baseline in trough FEV1 on Day 29 (Mean Δ): COPD patients
Protocol: (§1) Methods: Patients with moderate to severe stable COPD were randomized to receive double-blind, once-daily treatment with aclidinium (25, 50, 100, 200, or 400 μg), placebo, or open-label tiotropium 18 μg for 4 weeks. Spirometric measurements were performed at 22-24 h after the first dose and then at weekly intervals, and from 0.5-6 h post-administration on Day 1 and at Week 4 (Day 29).

[2] = system: Patients with moderate to severe stable COPD; test: Tolerability (ECG, laboratory parameters, adverse events) in the 4-week COPD trial; type: in vivo, human; conditions: aclidinium 25-400 μg once daily, 4 weeks
Protocol: as §1

## O=C(O[C@H]1C[N+]2(CCCOc3ccccc3)CCC1CC2)C(O)(c1cccs1)c1cccs1.[Br-] [Aclidinium, 3(R)-(2-hydroxy-2,2-dithien-2-ylacetoxy)-1-(3-phenoxypropyl)-1-azoniabicyclo[2.2.2]octane bromide]
[1]; aclidinium 25 μg once daily, double-blind, 4 weeks, inhaled
  Mean change from baseline in trough FEV1 on Day 29 (Mean Δ): 39 mL
[1]; aclidinium 50 μg once daily, double-blind, 4 weeks
  Mean change from baseline in trough FEV1 on Day 29 (Mean Δ): 36 mL
[1]; aclidinium 100 μg once daily, double-blind, 4 weeks
  Mean change from baseline in trough FEV1 on Day 29 (Mean Δ): 83 mL
[1]; aclidinium 200 μg once daily, double-blind, 4 weeks, *p <0.05 vs placebo
  Mean change from baseline in trough FEV1 on Day 29 (Mean Δ): 148* ml
[1]; aclidinium 400 μg once daily, double-blind, 4 weeks, *p <0.05 vs placebo
  Mean change from baseline in trough FEV1 on Day 29 (Mean Δ): 128* ml
[1]; aclidinium 25-400 μg once daily, 4 weeks
  Effect on trough FEV1 on Day 29: dose-dependently increased
[1]; aclidinium 200 and 400 μg
  Bronchodilatory effect compared with open-label tiotropium 18 μg: comparable bronchodilatory effects
[1]; all doses, compared with Day 1
  Bronchodilatory effect during the first 6 h post-dose on Day 29: comparable to that on Day 1
[1]; once-daily aclidinium
  Duration of bronchodilation: sustained bronchodilation over 24 h
[1]; post-dose, aclidinium 100-400 μg
  Time to peak FEV1: 3 h
[2]
  Effect on ECG, laboratory parameters or adverse events: no dose-dependent effect
  Tolerability: well tolerated

## C[N+]1(C)[C@@H]2C[C@@H](OC(=O)C(O)(c3cccs3)c3cccs3)C[C@H]1[C@@H]1O[C@@H]12 [Tiotropium, reference compound]
[1]; tiotropium 18 μg once daily, open-label, 4 weeks, *p <0.05 vs placebo
  Mean change from baseline in trough FEV1 on Day 29 (Mean Δ): 161* ml
